Source: ChEMBL document CHEMBL1133460, “Synthesis and biological evaluation of certain alpha,beta-unsaturated ketones and their corresponding fused pyridines as antiviral and cytotoxic agents” (J Med Chem, 2000)
Values after ≈ are worked out from the molar mass of the structure shown. Values joined by “and” are separate entries in the source; they are usually repeats but may differ in a detail not shown here. Identical values can stand only once.

How the values were obtained:
[1] = test system: Ovarian cancer cell line; assay: In vitro median growth inhibitory concentration against ovarian cancer cell lines; type: functional; conditions: Homo sapiens
[2] = test system: Panel renal (Carcinoma cell lines); assay: In vitro growth inhibitory concentration against renal cancer cell lines; type: functional; conditions: Homo sapiens
[3] = test system: Panel leukemia (Carcinoma cell lines); assay: In vitro median growth inhibitory conc. against leukemia was estimated.; type: functional; conditions: Homo sapiens
[4] = test system: Panel prostate (Carcinoma cell lines); assay: In vitro median growth inhibitory concentration against prostate cancer cell lines; type: functional; conditions: Homo sapiens
[5] = test system: NSCLC; assay: In vitro growth inhibitory concentration against non-small-cell lung cancer; type: functional; conditions: Homo sapiens
[6] = test system: Panel CNS (Carcinoma cell lines); assay: In vitro growth inhibitory concentration against CNS cancer cell lines; type: functional; conditions: Homo sapiens
[7] = test system: Ovarian cancer cell line; assay: In vitro growth inhibitory concentration against ovarian cancer cell lines; type: functional; conditions: Homo sapiens
[8] = species: Homo sapiens; assay: Selectivity ratio between the full panel MG-MID and leukemia subpanel MG-MID was determined.; type: functional
[9] = Full panel mean-graph midpoint (MG-MID)
[10] = In vitro median growth inhibitory concentration against colon cancer cell lines; type: functional; conditions: Homo sapiens
[11] = test system: Panel CNS (Carcinoma cell lines); assay: In vitro median growth inhibitory concentration against CNS cancer cell lines; type: functional; conditions: Homo sapiens
[12] = test system: Breast cancer cell line; assay: In vitro growth inhibitory concentration against breast cancer cell lines; type: functional; conditions: Homo sapiens
[13] = test system: Breast cancer cell line; assay: In vitro median growth inhibitory concentration against breast cancer cell lines; type: functional; conditions: Homo sapiens
[14] = test system: Human immunodeficiency virus 1; assay: In vitro effective concentration against HIV-1 cytopathic effect in T4 cells; Inactive; type: functional, organism-based
[15] = test system: Panel prostate (Carcinoma cell lines); assay: In vitro growth inhibitory concentration against prostate cancer cell lines; type: functional; conditions: Homo sapiens
[16] = test system: MT4; assay: In vitro inhibitory activity against uninfected T4 cells; type: functional, cell-based; conditions: Homo sapiens
[17] = In vitro growth inhibitory concentration against colon cancer tumor cell lines; type: functional; conditions: Homo sapiens
[18] = test system: Panel renal (Carcinoma cell lines); assay: In vitro median growth inhibitory concentration against renal cancer cell lines; type: functional; conditions: Homo sapiens
[19] = test system: Panel melanoma (Carcinoma cell lines); assay: In vitro growth inhibitory concentration against melanoma cancer cell lines; type: functional; conditions: Homo sapiens
[20] = test system: Panel melanoma (Carcinoma cell lines); assay: In vitro median growth inhibitory concentration against melanoma cell lines; type: functional; conditions: Homo sapiens
[21] = test system: NSCLC; assay: In vitro median growth inhibitory concentration against non-small-cell lung cancer; type: functional; conditions: Homo sapiens
[22] = test system: Panel leukemia (Carcinoma cell lines); assay: In vitro growth inhibitory concentration against leukemia tumor cell lines; type: functional; conditions: Homo sapiens
[23] = test system: Human alphaherpesvirus 1; assay: Concentration which caused 50% loss of the monolayer present around the viral plaques in ug/mL.; type: functional, organism-based
[24] = test system: Human alphaherpesvirus 1; assay: Concentration which caused 50% loss of the monolayer present around the viral plaques in uM; type: functional, organism-based
[25] = test system: Human alphaherpesvirus 1; assay: Minimum antiviral concentration proved to be lethal to viral population in ug/mL.; type: functional
[26] = test system: Human alphaherpesvirus 1; assay: Minimum antiviral concentration proved to be lethal to viral population in uM; type: functional
[27] = test system: Human alphaherpesvirus 1; assay: In vitro antiviral activity against Herpes Simplex-1 virus (HSV-1) expressed as percent reduction in the number of viral plaques; type: functional; parameters: concentration or dose not given beside the values
[28] = test system: Tumor cell line; assay: In vitro for median growth inhibitory concentration against breast cancer cell lines; type: functional; conditions: Homo sapiens
[29] = test system: Tumor cell line; assay: In vitro for median growth inhibitory concentration against CNS cancer cell lines; type: functional; conditions: Homo sapiens
[30] = test system: Tumor cell line; assay: In vitro for median growth inhibitory concentration against non small lung cancer cell lines; type: functional; conditions: Homo sapiens
[31] = test system: Tumor cell line; assay: In vitro for median growth inhibitory concentration against ovarian cancer cell lines; type: functional; conditions: Homo sapiens
[32] = Full panel mean-graph midpoint (MG-MID).
[33] = test system: Tumor cell line; assay: In vitro for growth inhibitory concentration against non small lung cancer cell lines; type: functional; conditions: Homo sapiens
[34] = test system: Tumor cell line; assay: In vitro for median growth inhibitory concentration against prostate cancer cell lines; type: functional; conditions: Homo sapiens
[35] = test system: Tumor cell line; assay: In vitro for median growth inhibitory concentration against melanoma cell lines; type: functional; conditions: Homo sapiens
[36] = test system: Tumor cell line; assay: In vitro for median growth inhibitory conc. against leukemia (compounds full panel MG-MID/leukemia subpanel MG-MID); type: functional; conditions: Homo sapiens
[37] = test system: Tumor cell line; assay: In vitro for median growth inhibitory concentration against colon cancer cell lines; type: functional; conditions: Homo sapiens
[38] = test system: Tumor cell line; assay: In vitro for median growth inhibitory concentration against renal cancer cell lines; type: functional; conditions: Homo sapiens

| SMILES | GI50 [1] [µM] | TGI [2] [µM] | GI50 [3] [µM] | GI50 [4] [µM] | TGI [6] [µM] | TGI [7] [µM] | Ratio [8] | MG-MID [9] | GI50 [10] [µM] | GI50 [11] [µM] | TGI [12] [µM] | GI50 [13] [µM] | EC50 [14] | TGI [15] [µM] | IC50 [16] [µM] | TGI [17] [µM] | GI50 [18] [µM] | TGI [19] [µM] | GI50 [20] [µM] | TGI [22] [µM] | other results |
| --- | --- | --- | --- | --- | --- | --- | --- | --- | --- | --- | --- | --- | --- | --- | --- | --- | --- | --- | --- | --- | --- |
| COc1ccc(/C=C2\CN(C)Cc3c2nc(O)c(C#N)c3-c2ccc(OC)cc2)cc1 | 51.8 | 87.8 | 35 | 70.9 | > 100 | > 100 | 1.5 | 52.5 µM and 95.8 µM | 60.5 | 44.9 | > 100 | 66.9 | Not Active | > 100 | 104 | > 100 | 61.2 | > 100 | 79.9 | 80.7 | TGI [5]: > 100 µM; GI50 [21]: 66.6 µM |
| Cc1ccc(/C=C2\CN(C)C/C(=C\c3ccc(C)cc3)C2O)cc1 |  |  |  |  |  |  |  |  |  |  |  |  |  |  |  |  |  |  |  |  | IC50 [23]: 0.2 µg/mL (≈ 0.626 µM); IC50 [24]: 0.63 µM; MAC [25]: 0.02 µg/mL; MAC [26]: 0.06 µM; Reduction [27]: 82% |
| Cc1ccc(/C=C2\CN(C)CC3=C2OC(N)=C(C#N)C3c2ccc(C)cc2)cc1 (stereo not given) |  | 54.5 |  |  | 83.6 | 55.7 |  | 51.1 µM |  |  | 70.1 |  | Not Active | 66.2 | 11.1 | 43.9 |  | 59.5 |  | 17.9 | TGI [28]: 30.7 µM; GI50 [29]: 37.7 µM; GI50 [30]: 3.3 µM; GI50 [31]: 15.5 µM; MG-MID [32]: 16.9 µM; TGI [33]: 54.1 µM; GI50 [34]: 29.4 µM; GI50 [35]: 26.6 µM; GI50 [36]: 5.1 µM; GI50 [37]: 16.6 µM; GI50 [38]: 18.1 µM |
| COc1ccc(/C=C2\CN(C)CC3=C2OC(N)=C(C#N)C3c2ccc(OC)cc2)cc1 (stereo not given) |  | 96.9 |  |  | > 100 | > 100 |  | 85.6 µM |  |  | 93.8 |  | Not Active | > 100 | 30.4 | 97.4 |  | 93.9 |  | 49.9 | GI50 [28]: 48.6 µM; GI50 [29]: 60.5 µM; GI50 [30]: 36.7 µM; GI50 [31]: 38.1 µM; MG-MID [32]: 33.3 µM; TGI [33]: 95.5 µM; GI50 [34]: 79.4 µM; GI50 [35]: 70.7 µM; GI50 [36]: 9.1 µM; GI50 [37]: 41.2 µM; GI50 [38]: 40.4 µM |
| CN1C/C(=C\c2cccs2)C(O)/C(=C/c2cccs2)C1 (stereo not given) | 81.4 | > 100 | 32.5 | > 100 | > 100 | > 100 | 2.4 | 77.1 µM and 97.7 µM | 85.8 | > 100 | 96.8 | 84.3 | Not Active | > 100 | 126 | > 100 | 96.2 | > 100 | 92.5 | 78.1 | TGI [5]: > 100 µM; GI50 [21]: 83.9 µM |
| CN1C/C(=C\c2cccs2)c2nc(O)c(C#N)c(-c3cccs3)c2C1 |  |  |  |  |  |  |  |  |  |  |  |  | Not Active |  | > 200 |  |  |  |  |  |  |
| Cc1ccc(/C=C2\CN(C)CC3C2=NN(c2ccccc2)C3c2ccc(C)cc2)cc1 (stereo not given) | 92.8 |  | 37.4 | 69.5 |  |  | 2.2 | 81 µM | > 100 | 77 |  | > 100 | Not Active |  | > 200 |  | 83.7 |  | 77.9 |  | GI50 [21]: 97.4 µM |
| CN1C/C(=C\c2cccs2)C2=NN(C)C(c3cccs3)C2C1 (stereo not given) | 74.4 | > 100 | 31.8 | 59.5 | > 100 | > 100 | 2.1 | 68 µM and 97.7 µM | 79.2 | 80.7 | > 100 | 86 | Not Active | > 100 | > 200 | > 100 | 89.7 | 97.7 | 85 | 87.8 | TGI [5]: > 100 µM; GI50 [21]: 86.4 µM |
